Measured values as given in US20250115595A1, “INHIBITORS OF HYPOXIA-INDUCIBLE FACTORS” (The Johns Hopkins University, priority 2021, published 2025).

How the values were obtained:
[1] = system: HIF-regulated vasoactive mediators; test: mRNA expression in hypoxic D120 hiPSC-derived retinal organoids; assay type: cell-based, human; details: 1% O2, 12 hours
Experimental: To assess the therapeutic potential of 32-134D for diabetic patients, human induced pluripotent stem cell (hiPSC)-derived 3-dimensional (3D) retinal organoids were treated with 32-134D. It has been previously reported that hiPSC-derived 3D retinal organoids cultured under hypoxic conditions (1% O2) behave similar to ischemic human retinal tissue with increased accumulation of both HIF-1α and HIF-2α (J. Zhang et al., J Clin Invest 131 (2021)). By 120 days of differentiation (D120), the inner and outer retinal layers are clearly defined (FIGS. 32A and 32B) and contain the precursors of the major retinal cell types, including outer retina photoreceptors (expressing recoverin), few newly differentiating bipolar cell precursors (lacking expression of recoverin and Pax6), amacrine cells (expressing high levels of Pax6), as well as Müller cells (expressing CRALBP; FIGS. 32C and 32D). […]
Reverse transcription and quantitative real-time PCR: Total RNA was isolated from cultured cells or retinas with PureLink™ RNA Mini Kit (Invitrogen #12183025), and cDNA was prepared with MuLV Reverse Transcriptase (Applied Biosystems). Quantitative real-time PCR was performed with Power SYBR Green PCR Master Mix (Applied Biosystems) and MyiQ Real-Time PCR Detection System (Bio-Rad). […]

C57BL/6 mice = test: Safety after systemic (IP) dosing: fundus/angiography, ERG, tissue histology; assay type: in vivo, mouse
Experimental: Fundus photos and fluorescein angiographic images of the retina of C57BL/6 mice on day 30 following 5 daily intraperitoneal (IP) injections (day 0 to day 5) with 32-134D at 40 or 80 mg/kg compared to vehicle control (FIG. 17).
ERG measurements taken in C57BL/6 mice at day 7 (D7) and day 14 (D14) following 5 daily IP injections (day 0 to day 5) with vehicle control (Veh) or 32-134D at 20, 40, or 80 mg/kg/day.
To survey for possible organ damage following systemic administration, three-month-old mice were treated with the 80 mg/kg/day of 32-134D by IP injection for five consecutive days (days 0-4). On day 30, mice were sacrificed, perfused with PBS, and tissues were harvested and fixed in 4% paraformaldehyde (PFA). Harvested tissues included the brain, heart, muscle, liver, spleen, kidney, stomach, small intestine, and large intestine. Tissues were embedded with paraffin, sectioned at […], and stained with hematoxylin and eosin. Images were taken at 20× magnification.
Flash scotopic ERGs: All procedures were performed under dim red light. Mice were dark adapted overnight, anesthetized with ketamine (50 mg/kg) and xylazine (5 mg/kg) and pupils were dilated with a topical drop of tropicamide (1%). Scotopic ERG responses were measured using the Celeris ERG stimulator (Diagnosys, Lowell, MA) at flash intensities of 0.025, 0.25, 2.5, 7.96, and 79.06 cd/s/m2. ERGs were measured simultaneously from both eyes with a ground electrode placed into the forehead between the eyes and a reference electrode into the hip.
Fluorescein angiography in mice: To evaluate the effect of 32-134D on the retinal vasculature and vascular permeability, experimental animals were treated with 5 consecutive daily IP injections with 32-134D at 40 or 80 mg/kg. On day 30, mice were anesthetized using intramuscular injection with ketamine (50 mg/kg) and xylazine (5 mg/kg). Pupils were then dilated using 1% tropicamide eye drops and mice were placed on the imaging platform of the Phoenix Micron III retinal imaging microscope (Phoenix Research Laboratories, Pleasanton, CA). Goniovisc 2.5% (hypromellose; Sigma Pharmaceuticals, LLC, Monticello, IA) was applied liberally to keep the eye moist during imaging studies. Fundus photos were taken before administering 10 to 20 μl of 10% fluorescein sodium (Apollo Ophthalmics, Newport Beach, CA) IP injection. Rapid acquisition of fluorescein angiographic images was then performed for 5 minutes. Fluorescein leakage manifests as indistinct vascular borders progressing to diffusely hazy fluorescence. Fluorescein leakage was compared between different groups by quantifying the fluorescence intensities collected after 1, 2, and 3 minutes following fluorescein injection using ImageJ software (National Institutes of Health, Bethesda, MD).

[2] = system: HIF transcriptional activity; test: Luciferase reporter assay (FLuc/RLuc) in hypoxic Hep3B-c1 cells; assay type: cell-based; details: Homo sapiens, FLuc/RLuc ratio, 1% O2, 24 hours
Experimental: The NCI CellMiner database contains expression data on 25,698 mRNAs in 60 human cancer cell lines that were exposed to 21,770 chemical compounds (Reinhold W C, et. al., Cancer Res. 2012; 72(14):3499-3511). The CellMiner database was interrogated for compounds that induced changes in gene expression highly correlated with those induced by acriflavine, but would be structurally unrelated to acriflavine. Compounds that satisfied these criteria were analyzed in Hep3B-c1 cells (Zhang H. et. al., Proc Natl Acad Sci USA. 2008; 105(50):19579-19586), which are stably transfected with: HIF dependent reporter plasmid p2.1, in which firefly luciferase (FLuc) coding sequences are located downstream from a hypoxia response element (HRE) and a basal SV40 promoter; and control reporter pSVR, in which Renilla luciferase (RLuc) coding sequences are downstream of the basal SV40 promoter only (FIG. 1A).
Hep3B-c1 cells (Zhang 2008), which are stably co-transfected with reporter plasmids p2.1, a hypoxia-inducible firefly luciferase reporter gene containing a hypoxia response element (HRE), and pSVR, a constitutively expressed Renilla luciferase reporter gene, were seeded on 24-well plates. Cells were treated with compounds the following day and exposed to 20% or 1% O2 for 24 hours. For transient transfection, cells were seeded, transfected with the listed plasmids and compounds, and exposed to 20% or 1% O2 for 24 hours. FLuc/RLuc ratios were determined using the Dual Luciferase Reporter Assay System (Promega) and the VICTOR Nivo plate reader (PerkinElmer).

[3] = 5 daily IP injections 20, 40 or 80 mg/kg/day, D7 and D14

In the case of `Brc1ccc2c(-c3csc(-c4c[nH]c5c(Br)cccc45)n3)c[nH]c2c1` [Compound 32-134D, 4-(6-bromo-1H-indol-3-yl)-2-(7-bromo-1H-indol-3-yl)thiazole], the “expression of HIF-regulated vasoactive mediators (Vegf, Angpt14 mRNA)” value [1] is reported as “effectively prevented”, the “tissue histology (brain, heart, muscle, liver, spleen, kidney, stomach, intestines)” value (C57BL/6 mice; 80 mg/kg/day IP for five days, day 30) is reported as “no evidence of toxicity” and the “ERG a-wave versus vehicle” value (C57BL/6 mice; [3]) is reported as “no statistically significant difference”. For the same compound, the “ERG b-wave versus vehicle” value (C57BL/6 mice; [3]) was “no statistically significant difference”, the “fundus photos and fluorescein angiography of retina” value (C57BL/6 mice; 5 daily IP injections 40 or 80 mg/kg, day 30) was “intact retinal vasculature and absence of capillary leakage” and the IC50 [2] was 2500 nM.
